One assay deals with T1, AtzB_Hom_Hal (Mangrovimicrobium sediminis, UniProt A0A4Z0M5D5).
T1 sequence (A0A4Z0M5D5 1-465): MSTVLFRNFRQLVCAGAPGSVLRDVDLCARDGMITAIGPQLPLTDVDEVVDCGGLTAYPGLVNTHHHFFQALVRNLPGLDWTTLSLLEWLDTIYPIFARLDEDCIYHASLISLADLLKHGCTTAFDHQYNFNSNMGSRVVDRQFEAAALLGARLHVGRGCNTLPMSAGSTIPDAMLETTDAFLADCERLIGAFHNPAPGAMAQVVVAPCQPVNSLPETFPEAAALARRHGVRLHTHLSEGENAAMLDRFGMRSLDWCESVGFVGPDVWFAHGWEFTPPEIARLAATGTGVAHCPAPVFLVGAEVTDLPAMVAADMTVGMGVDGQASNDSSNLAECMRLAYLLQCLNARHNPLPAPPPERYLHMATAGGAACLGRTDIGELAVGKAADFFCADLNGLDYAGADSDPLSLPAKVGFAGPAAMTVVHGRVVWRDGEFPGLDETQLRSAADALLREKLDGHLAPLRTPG
Briefly: direct photometric steady-state assay, spectrophotometer. Format: biochemical. Particulars: 50 mM potassium phosphate pH 7.5, 25 °C.

The target in another assay is T2, AtzB (Pseudomonas sp. ADP, UniProt P95442).
T2 sequence (P95442 1-481): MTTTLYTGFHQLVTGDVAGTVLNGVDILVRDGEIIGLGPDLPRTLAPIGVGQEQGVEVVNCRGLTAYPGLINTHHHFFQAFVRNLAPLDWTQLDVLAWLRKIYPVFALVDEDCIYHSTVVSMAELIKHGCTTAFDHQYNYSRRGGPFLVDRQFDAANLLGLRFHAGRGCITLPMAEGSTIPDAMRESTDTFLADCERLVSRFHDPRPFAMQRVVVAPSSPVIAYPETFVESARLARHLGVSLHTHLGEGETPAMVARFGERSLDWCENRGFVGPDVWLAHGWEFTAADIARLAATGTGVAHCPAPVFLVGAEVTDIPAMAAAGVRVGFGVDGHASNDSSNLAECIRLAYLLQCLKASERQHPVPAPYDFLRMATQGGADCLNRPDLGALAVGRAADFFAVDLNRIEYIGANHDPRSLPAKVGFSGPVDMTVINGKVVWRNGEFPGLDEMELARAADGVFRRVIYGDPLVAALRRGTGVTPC
Described as above. Format: biochemical. The following applies: 50 mM potassium phosphate pH 7.5, 25 °C.

`CCNc1nc(O)nc(NC(C)C)n1` [II, hydroxyatrazine]: on AtzB_Hom_Hal, the KM entry was “promiscuous hydroxyatrazine hydrolase activities of AtzB_Hom_Hal and AtzB_Hom_Pleo”.

For the compound `Nc1nc2[nH]cnc2c(=O)[nH]1` [guanine], the kcat/KM result at AtzB is given as “represents an increase of about three orders of magnitude compared to AtzB”.

The values above are taken from PMC7615792 (ACS catalysis, 2023).
